Measured values taken from patent US20250248979A1, “NOVEL GPX4 INHIBITORS AND USES THEREOF” (THE TRUSTEES OF COLUMBIA UNIVERSITY IN THE CITY OF NEW YORK, priority 2022, published 2025).
pEC50, pIC50, pKd: −log10 of the molar value. Like-named read-outs stand apart in the source and are kept apart here.

Columns and labels:
HT-1080 cells = assay: Cellular dose response assay, HT-1080 with and without Fer-1; type: cell-based, human
Outline: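 Cells seeded at 1500/well overnight, then treated in triplicate with 12-point 2-fold compound dilutions ± Fer-1 (0.4% DMSO final) for 48 h at 37 °C, 5% CO2. Viability read by CellTiter-Glo luminescence; error bars are SD of three technical replicates from a representative experiment.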

SK-HEP-1 cells = assay: Cellular dose response assay, SK-HEP-1; type: cell-based, human
Description: (§1) HT-1080 (human [Homo sapiens] […] fibrosarcoma), A-673 (human [Homo sapiens] […] Ewing's sarcoma), and SK-HEP-1 (human [Homo sapiens] […] hepatic adenocarcinoma), cells were obtained from ATCC. Huh7 (human [Homo sapiens] […] hepatocellular carcinoma), HLF (human [Homo sapiens] […] hepatocellular carcinoma), HepG2 (human [Homo sapiens] […] hepatocellular carcinoma), cells were obtained from the Cancer Cell Bank at Columbia University Irving Medical Center. HT-1080, A-673, Huh-7, and HLF cells were grown in Dulbecco's Modified Eagle Medium (DMEM) supplemented with 10% heat inactivated fetal bovine serum (HI-FBS), 1% non-essential amino acids, and 1% penicillin streptomycin. HepG2 and SK-HEP-1 cells were grown in Eagle's Minimum Essential Medium (EMEM) supplemented with 10% HI-FBS, and 1% penicillin-streptomycin. All cells were cultured at 37° C. and 5% CO2.
(§2) HT-1080, HepG2, Huh7, HLF, and SK-HEP-1 cells were seeded into opaque white 384-well plates at 1500 cells per well then incubated at 37° C. with 5% CO2 overnight. The next day, compounds of interest were dissolved in DMSO and 12-point 2-fold dilution series were prepared with and without Fer-1. Cells were treated in triplicate (final DMSO concentration of 0.4% in all wells, including DMSO-only control wells) and incubated for a further 48 hours at 37° C. and 5% CO2. Cell viability was evaluated using CellTiter-Glo (Promega G7573) and luminescence was recorded on a Victor 5 plate reader. Data were analyzed in GraphPad Prism 9 and error bars represent standard deviation values for three technical replicates in a representative experiment.

GPX4^U46C = molecular target: T1, GPX4^U46C (Homo sapiens, UniProt P36969, U73C); assay: Microscale thermophoresis (MST) binding; conditions: for pEC50: half maximal effective concentration, covalent mechanism
T1 construct: made in house; host or cells: E. coli BL21-Gold (DE3)
T1 sequence (P36969 1-170 isoform P36969-2 U46C): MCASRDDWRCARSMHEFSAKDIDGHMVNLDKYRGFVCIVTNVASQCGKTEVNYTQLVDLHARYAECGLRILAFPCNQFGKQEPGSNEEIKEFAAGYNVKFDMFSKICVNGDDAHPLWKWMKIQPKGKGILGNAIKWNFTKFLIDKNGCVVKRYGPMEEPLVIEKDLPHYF
Protocol: The bacterial expression vector pET-15b-His-tagged-c-GPX4^U46C was prepared as previously described (Yang et al. 2016). The C-terminal His-tagged GPX4U46C protein was expressed in E. coli and purified according to a protocol modified from Scheerer et al. 2007. First, pET-15b-His-tagged-c-GPX4^U46C was transformed into XL10-Gold (Agilent #200314) E. coli ultracompetent cells for plasmid DNA production and isolated using QIAprep Spin Miniprep Kit (Qiagen). For protein expression, pET-15b-His-tagged-c-GPX4^U46C was then transformed into BL21-Gold (DE3) E. coli competent cells (Agilent #230132) and plated on LB agar with 100 μg/mL ampicillin. A starter culture was inoculated in 7 mL of LB medium with 100 μg/mL ampicillin using a single colony and allowed to grow in a 37° C. shaker (225 rpm) for 16 hours. 3 mL of the starter culture was added to 1 L of LB medium with 100 μg/mL ampicillin, which was then incubated in a 37° C. shaker (225 rpm) to an OD600 of 0.9. At that point, the incubation temperature was reduced to 15° C. and the culture was allowed to equilibrate for 1 hour. Expression of the recombinant enzyme was induced by addition of isopropyl β-D-1-thiogalactopyranoside (IPTG, 1 mM final concentration) overnight for 12-15 hours shaking at 225 rpm and 15° C. The next morning, cells were harvested by centrifugation at 4000 rpm and 4° C. for 20 minutes. The cell pellet was then frozen at −80° C. for at least 1 hour or until lysis. To lyse the cells, the cell pellet was resuspended with 25 mL of chilled lysis buffer (100 mM Tris pH 8.0, 300 mM NaCl, 20 mM imidazole, 3 mM TCEP, and 2.5 mini tablets of complete Protease Inhibitor Cocktail (Roche-Sigma #11836170001)) then lysed using an Emulsiflex C3 high-pressure homogenizer. To remove cell debris, the lysate was subjected to centrifugation at 10000 rpm and 4° C. for 20 minutes. The supernatant was centrifuged once more at the same conditions, then the clarified lysate was applied onto a 5-mL HisTrap HP column (Cytiva #17-5248-01), washed with 90% Buffer A (100 mM Tris pH 8.0, 300 mM NaCl, 5% glycerol, 3 mM TCEP) 10% Buffer B (Buffer A with 500 mM imidazole), then eluted with a continuous gradient (10-100% Buffer B). The protein was concentrated using Amicon Ultra-15 centrifugal filter units with a 10 kDa molecule weight cutoff (EMD Millipore #UFC901024) then further purified by FPLC on a size exclusion HiLoad Superdex 200 column (Cytiva) in crystallization buffer (20 mM Tris pH 8.0, 300 mM NaCl, 3 mM TCEP). The fractions containing 90-95% pure GPX4 protein, as evaluated by SDS-PAGE, were pooled and concentrated using the same Amicon centrifugal filter units as above to 5 mg/mL. Concentration was determined by Nanodrop. Protein was aliquoted into Eppendorf tubes, flash frozen using liquid nitrogen, and stored at −80° C. until use.
MST experiments were conducted using a Monolith NT.115 (Nanotemper Technologies) according to manufacturer instructions. To label the protein, 90 μL of 200 nM GPX4^U46C was combined with 90 μL of 100 nM RED-tris-NTA dye diluted in PBS buffer with 0.05% Tween 20 (PBST buffer). The mixture was incubated for 30 minutes at room temperature, followed by centrifugation for 10 minutes at 4° C. and 15,000×g. To assess binding of the compounds, a 16-point 2-fold dilution series in PBST buffer was prepared and mixed in a 1:1 ratio with the labeled protein solution for a final volume of 20 μL. The reaction mixture was loaded into standard treated capillary tubes and analyzed with the Monolith NT.115 at 40% LED power and 40% MST power with a laser-on time of 5 seconds. The data were analyzed in MO.Affinity Analysis v2.3 software.

Huh7 cells = assay: Cellular dose response assay, Huh7; type: cell-based, human
Description: as §1, §2

HLF cells = assay: Cellular dose response assay, HLF; type: cell-based, human
Description: as §1, §2

[1] = compounds alone, Table 4, read-out: IC50 (uM) HT1080^a
[2] = with fer-1, Table 4, read-out: IC50 (uM) HT1080^b
[3] = compounds alone, Table 4, read-out: IC50 (uM) SKHEP1^a
[4] = with fer-1, Table 4, read-out: IC50 (uM) SKHEP1^b
[5] = compounds alone, Table 4, read-out: IC50 (uM) Huh7^a
[6] = with fer-1, Table 4, read-out: IC50 (uM) Huh7^b
[7] = compounds alone, Table 4, read-out: IC50 (uM) HLF^a
[8] = with fer-1, Table 4, read-out: IC50 (uM) HLF^b
[9] = with Fer-1, Table 10, read-out: IC50 (μM) HT1080 + Fer-1

Row | SMILES | pKd (GPX4^U46C; MST) | pEC50 (GPX4^U46C) | IC50 (HT-1080 cells; [1]) [µM] | IC50 (HT-1080 cells; [2]) [µM] | IC50 (SK-HEP-1 cells; [3]) [µM] | IC50 (SK-HEP-1 cells; [4]) [µM] | IC50 (Huh7 cells; [5]) [µM] | IC50 (Huh7 cells; [6]) [µM] | IC50 (HLF cells; [7]) [µM] | IC50 (HLF cells; [8]) [µM] | other results
1 | Cn1nc(C(=O)NC(C)(C)COC(=O)CCl)c2ccc(Br)cc21 [QW-314] | 5.24 | – | – | – | – | – | – | – | – | – | IC50 (HT-1080 cells; Homo sapiens, HT-1080, read-out: IC50 (uM) HT1080^a): 1.9 µM; IC50 (HT-1080 cells; Homo sapiens, HT-1080, read-out: IC50 (uM) HT1080^b): 77.4 µM; IC50 (SK-HEP-1 cells; Homo sapiens, SK-HEP1, read-out: IC50 (uM) SKHEP1^a): 10.8 µM; IC50 (SK-HEP-1 cells; Homo sapiens, SK-HEP1, read-out: IC50 (uM) SKHEP1^b): 106 µM; times less potent than RSL3 in cells (Huh7 cells): approximately 10 times; GI50 (Huh7 cells; Homo sapiens, Huh-7): ~1000 nM; IC50 (Huh7 cells; Homo sapiens, Huh-7, read-out: IC50 (uM) Huh7^a): 1.8 µM; IC50 (Huh7 cells; Homo sapiens, Huh-7, read-out: IC50 (uM) Huh7^b): 92.9 µM; GI50 (HLF cells; Homo sapiens, HLF): ~1000 nM; IC50 (HLF cells; Homo sapiens, HLF, read-out: IC50 (uM) HLF^a): 0.13 µM; IC50 (HLF cells; Homo sapiens, HLF, read-out: IC50 (uM) HLF^b): 80 µM
2 | COc1ccc(-c2ccc3c(C(=O)NC(C)(C)COC(=O)CCl)nn(C)c3c2)cc1Cl [QW-446] | 6.31 | – | – | – | – | – | – | – | – | – | IC50 (HT-1080 cells; HT1080 + Fer-1, read-out: IC50 (uM) HT1080 + Fer-1): 30.3 µM; ferroptosis selectivity (HT-1080 cells; HT-1080): 69; Selectivity (HT-1080 cells; ferroptosis selectivity, HT1080 + Fer-1 vs HT1080): 69; pIC50 (HT-1080 cells; read-out: IC50 HT1080): 6.36; times more potent than RSL3 (binding affinity) (GPX4^U46C; MST, relative to RSL3): 15 times
3 | COc1cccc2[nH]c(C(=O)n3ccnc3)cc12 [LOC1886, reference compound] | 3.58 | 3.58 | – | – | – | – | – | – | – | – | IC50 (HT-1080 cells; Homo sapiens, HT-1080, compounds alone, read-out: IC50 (μM) HT1080^a): 163 µM; IC50 (HT-1080 cells; Homo sapiens, HT-1080, compounds and fer-1 1.0 μM, read-out: IC50 (μM) HT1080^b): 109 µM; ferroptosis induction / potency in HT-1080 cells, result in words (HT-1080 cells; RSL3 as control): no fer-1 rescue was observed
4 | CC(C)(COC(=O)CCl)NC(=O)c1cc2ccccc2[nH]1 [QW-147] | – | 5.62 | 34.8 | 37.2 | 24.1 | 52.8 | 98.7 | 113 | 98.7 | 113 | –
5 | COc1ccc2cc(C(=O)NC(C)(C)COC(=O)CCl)[nH]c2c1 [QW-152] | – | 6.17 | 55.5 | 167 | 24.7 | 340 | 59.6 | 110 | 30 | 278 | –
6 | COC(=O)c1ccc([C@@H]2c3[nH]c4ccccc4c3C[C@@H](C(=O)OC)N2C(=O)CCl)cc1 [RSL3, reference compound] | – | – | 0.044 | 4.6 | 0.05 | > 40 | 0.6 | 34.4 | 0.25 | > 40 | Selectivity (HT-1080 cells): 103.6; IC50 (HT-1080 cells; compounds alone, Table 7, read-out: IC50 (uM) HT1080^a): 0.044 µM; IC50 (HT-1080 cells; compounds alone, read-out: IC50 (μM) HT1080^a): 0.044 µM; IC50 (HT-1080 cells; compounds and fer-1 1.0 μM, read-out: IC50 (μM) HT1080^b): 4.6 µM; IC50 (HT-1080 cells; [9]): 4.6 µM; IC50 (HT-1080 cells; with fer-1, Table 7, read-out: IC50 (uM) HT1080^b): 4.6 µM; pIC50 (HT-1080 cells; without Fer-1, Table 10, read-out: IC50 HT1080): 7.35; IC50 (SK-HEP-1 cells; compounds alone, Table 7, read-out: IC50 (uM) SKHEP1^a): 0.05 µM; IC50 (SK-HEP-1 cells; with fer-1, Table 7, read-out: IC50 (uM) SKHEP1^b): > 40 µM; IC50 (Huh7 cells; compounds alone, Table 7, read-out: IC50 (uM) Huh7^a): 0.6 µM; IC50 (Huh7 cells; with fer-1, Table 7, read-out: IC50 (uM) Huh7^b): 34.4 µM; IC50 (HLF cells; compounds alone, Table 7, read-out: IC50 (uM) HLF^a): 0.25 µM; IC50 (HLF cells; with fer-1, Table 7, read-out: IC50 (uM) HLF^b): > 40 µM
7 | CC(C)(COC(=O)CCl)NC(=O)c1nn(Cc2cc(Cl)cc(Cl)c2)c2cc(-c3ccc(N4CCOCC4)c(Cl)c3)ccc12 [QW-852] | – | – | – | – | – | – | – | – | – | – | Selectivity (HT-1080 cells): >1000; pIC50 (HT-1080 cells; read-out: IC50 against HT1080 cell lines): 7.40; IC50 (HT-1080 cells; [9]): > 40 µM
8 | CC(C)(COC(=O)CCl)NC(=O)c1cc2cc([N+](=O)[O-])ccc2[nH]1 [QW-148] | – | 4.40 | 37.7 | 95.9 | 10.1 | 121 | 15.8 | 55 | 16.6 | 28.7 | –
9 | CC(C)(COC(=O)CCl)NC(=O)c1cc2ccc(Br)cc2[nH]1 [QW-156] | – | 6.66 | 22.9 | 33.1 | 13.7 | 62.8 | 17.8 | 55.4 | 13.4 | 34.3 | –
